Test results published in patent US20090275565A1, “Substituted aralkyl derivatives” (CADILA HEALTHCARE LIMITED, priority 2002, published 2009).
Where a name gives a salt, the structure may show the parent alone.

Experiments:
[1] = system: hypercholesterolemic rat models; assay: Cholesterol lowering activity in hypercholesterolemic rat models; assay type: in vivo; settings: hypercholesterolemic male Sprague Dawley rats, oral, 3 mg/kg/day, serum
Protocol: • ii) Cholesterol lowering activity in hypercholesterolemic rat models
Male Sprague Dawley rats stock bred in Zydus animal house were maintained under 12 hour light and dark cycle at 25±1° C. Rats of 100-150 g body weight range were used for the experiment. Animals were made hypercholesterolemic by feeding 1% cholesterol and 0.5% sodium cholate mixed with standard laboratory chow (NIN, Hyderabad, India) and water ad libitum for 5 days. The animals were maintained on the same diet throughout the experiment [Petit D., Bonnefis M. T., Rey C and Infante R., Effects of ciprofibrate on liver lipids and lipoprotein synthesis in normal and hyperlipidemic rats, Atherosclerosis, 74, 215-225 (1988)].
The test compounds were administered orally at a dose 0.03 to 50 mg/kg/day for 4 days, after suspending it in 0.25% CMC or dissolving it in water when compound is water-soluble. Control group was treated with vehicle alone (0.25% of Carboxymethylcellulose; dose 10 ml/kg).
The blood samples were collected in fed state on 0th and 1 hour after drug administration on 6th day of the treatment. The blood was collected from the retro-orbital sinus through non-heparinised capillary and the serum samples were analyzed for triglyceride and total cholesterol using commercial kits (Zydus-Cadila, Pathline, Ahmedabad, India). LDL and HDL by commercial kits (point Scientific, USA). LDL and VLDL cholesterol were calculated from the data obtained for total cholesterol, HDL and triglyceride.
The reduction in VLDL cholesterol is calculated according to the formula.
VLDL cholesterol in mg/dl=Total cholesterol−HDL cholesterol−LDL cholesterol

[2] = system: C57BL/KsJ-db/db mice; assay: Serum glucose lowering activity in db/db mice models; assay type: in vivo; settings: male C57BL/KsJ-db/db mice, oral gavage, 3 mg/kg/day, 6 days, one hour after dosing on 6th day
Protocol: • iii) Serum glucose lowering activity in db/db mice models
Homozygous animal C57BL/KsJ-db/db mice are obese, hyperglycemic, hyperinsulinemic and insulin resistant (J. Clin. Invest., 85, 962-967, 1990), whereas heterozygous are lean and normoglycemic. The homozygous animals very closely mimic the human type II diabetes when blood sugar levels are not sufficiently controlled. Since this type of model resembles human type II diabetes mellitus, the compounds of the invention were tested for their antidiabetic activity in this model.
Male C57 BL/KsJ-db/db mice of 8 to 14 weeks age, having body weight range of 40 to 60 grams, procured from the Jackson Laboratory, USA, were used in the experiment.
Test compounds were suspended on 0.25% carboxymethyl cellulose or dissolved in water when the compound is water soluble and administered to test group containing 6 animals at a dose of 0.001 mg to 50 mg/kg through oral gavage daily for 6 days. The control group received vehicle (dose 10 ml/kg). On the 6th day, one hour after the drug dosing, blood was collected from retro-orbital sinus and the serum was analyzed for glucose and triglycerides were measured using commercial kits (Zydus-Cadila, Pathline, Ahmedabad, India). The serum glucose and triglyceride lowering activities of the test compound was calculated according of the formula: […]

[3] = system: Swiss albino mice; assay: Serum triglyceride and total cholesterol lowering activity in Swiss albino mice; assay type: in vivo; settings: male Swiss albino mice, oral, 3 mg/kg/day, 6 days, fed state 1 hour after dosing on 6th day
Protocol: Male Swiss albino mice (SAM) were bred in Zydus animal house. All these animals were maintained under 12 hour light and dark cycle at 25±1° C. Animals were given standard laboratory chow (NIN, Hyderabad, India) and water ad libitum. SAM of 20-30 g body weight range were used.
The test compounds were administered orally to Swiss albino mice at 0.001 to 50 mg/kg/day dose for 6 days. The compound was administered after suspending it in 0.25% CMC or dissolving it in water, when compound is water-soluble. Control mice were treated with vehicle (0.25% of Carboxymethylcellulose; dose 10 ml/kg).
The blood samples were collected on 0th day and in fed state 1 hour after drug administration on 6th day of the treatment. The blood was collected in non heparinised capillary and the serum was analyzed for triglyceride and total cholesterol (Wieland, O. Methods of Enzymatic analysis. Bergermeyer, H., O., Ed., 1963. 211-214; Trinder, P. Ann. Clin. Biochem. 1969. 6: 24-27). Measurement of serum triglyceride and total cholesterol was done using commercial kits (Zydus-Cadila, Pathline, Ahmedabad, India).
Percentage reduction in triglycerides/total cholesterol were calculated according to the formula: […]

CCO[C@H](CN)Cc1ccc(OCc2nc(-c3ccccc3)oc2C)cc1.O=C(O)C(=O)O showed a melting point of 135 °C.

For CCO[C@H](CN)Cc1ccc(OCCc2nc(-c3ccccc3)oc2C)cc1 (as salt: bisulphate) [Compound 167, Bisulphate Salt of 2S-Ethoxy-3-{4-[2-(5-methyl-2-phenyl-oxazol-4-yl)-ethoxy]-phenyl}-propyl amine], the melting point was 175 °C.

With CCO[C@@H](Cc1ccc(OCc2nc(-c3cccs3)oc2C)cc1)C(=O)O [Compound 27, (2S)-Ethoxy-3-[4-(5-methyl-2-thiophen-2-yl-oxazol-4-ylmethoxy)-phenyl]-propanoic acid] the “Total cholesterol reduction (%)” value [1] was 44%.

With CCO[C@H](CO)Cc1ccc(OCCc2nc(-c3ccccc3)oc2C)cc1 [Compound 64, (2S)-Ethoxy-3-{4-[2-(5-methyl-2-phenyl-oxazol-4-yl)-ethoxy]-phenyl}-propan-1-ol] the “Plasma TG reduction (%)” value [2] was 74% and the “Serum Glucose reduction (%)” value [2] was 56%.

In the case of CCOC[C@H](Cc1ccc(OCCc2nc(-c3ccccc3)oc2C)cc1)OCC [Compound 84, 1-Ethoxy-(2S)-ethoxy-3-[4-{2-(5-methyl-2-phenyl-oxazol-4-yl)-ethoxy}-phenyl]-propane], the “Plasma TG reduction (%)” value [2] is reported as 47% and the “Serum Glucose reduction (%)” value [2] is reported as 47%.

With CCO[C@H](COC(=O)CBr)Cc1ccc(OCCc2nc(-c3ccccc3)oc2C)cc1 [Compound 90, (2S)-Ethoxy-3-{4-[2-(5-methyl-2-phenyl-oxazol-4-yl)-ethoxy]-phenyl}-propyl bromo-acetate] the “Total cholesterol reduction (%)” value [1] was 56%.

In the case of CCO[C@H](CN)Cc1ccc(OCCc2nc(-c3ccccc3)oc2C)cc1 [Compound 134, (2S)-Ethoxy-3-{4-[2-(5-methyl-2-phenyl-oxazol-4-yl)-ethoxy]-phenyl}-propylamine], the “% Triglyceride lowering” value [3] is reported as 54%.

For CCO[C@H](CN)Cc1ccc(OCc2nc(-c3ccccc3)oc2C)cc1 [Compound 141, (2S)-Ethoxy-3-{4-[5-methyl-2-phenyl-oxazol-4-ylmethoxy]-phenyl}-propylamine], the “Total cholesterol reduction (%)” value [1] was 61%.
